Reference: US20260207563A1, “UREA COMPOUNDS AS ACTIVATORS OF POTASSIUM CHANNELS KV7.2/7.3 USEFUL IN THE TREATMENT OF CNS AND PNS DISORDERS” (ANGELINI PHARMA S.P.A., priority 2022, published 2026)

Assays:
Format in all cases: cell-based
[1] = target: T1, heteromeric KV7.2/KV7.3 channels (KCNQ2, KCNQ3) (Homo sapiens, UniProt O43525+O43526); assay: Automated patch-clamp (Sophion Qube 384) potency assay against KV7.2/KV7.3 channels; conditions: CHO-K1/Kv7.2/Kv7.3 cells; for EC50: EC50 from concentration-response of shift in Vhalf, 10 concentrations up to 30 μM, read-out: Kv7.2/7.3 EC50; for Kv7.2/7.3 ΔV1/2: maximal shift in the Vhalf from the top of the curve
T1 construct: expressed in transfected cells; host or cells: CHO-K1
Outline: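 Activator potency: EC50 from 4-parameter logistic fit of mean Vhalf shift across ten 1-in-3 dilutions starting at 30 μM (n=4), with DMSO (typically 0.3%) control. Currents recorded by leak-subtracted whole-cell clamp of stable CHO-K1 KV7.2/KV7.3 cells, held at −80 mV, stepped −100 to +20 mV then 0 mV tails.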

[2] = target: T2, heteromeric KV7.3/KV7.5 channel (KCNQ3, KCNQ5) (Homo sapiens, UniProt O43525+Q9NR82); assay: Automated patch-clamp counter-screening against KV7.3/KV7.5 channel; conditions: HEK293 cells expressing Kv7.3/KV7.5; class by maximal shift in the Vhalf at 30 μM
T2 construct: host or cells: HEK293
Method: Assessment of in vitro potency against KV7.3/KV7.5 channels
Counter-screening was also carried out against the heteromeric KV7.3/KV7.5 channel (KCNQ3, Uniprot ID 043525; KCNQ5, Uniprot ID Q9NR82). The cell line used was a stably transfected HEK293 cell line with constitutive Kv7.3 expression and tetracycline inducible KV7.5 expression supplied by Charles River Laboratories.
Cells were maintained in the following culture media: • DMEM/F-12 with GlutaMAX™ (Life Technologies 31331-028), • 10% Tet Systems FCS (Clonetech 631106), • 500 μg/ml Geneticin™ selective antibiotic (G418, Invitrogen 1013-027), • 5 μg/ml Blasticidin S HCl (InvivoGen ant-bl-5), and • 100 μg/ml Zeocin (InvivoGen: ant-zn-5).
(§1) Cell maintenance, preparation, recording conditions and voltage protocols were all identical to those above.
(§2) Analysis of Data for Assessment of Potency
(§3) 10 concentrations of test compounds were applied to individual wells in quadruplicate to assess potency as a 1 in 3 dilution series from the maximal concentration of 30 μM. The average shift in the voltage for half activation (Vhalf) for each concentration was used to generate concentration-response curves fitted with a 4-parameter logistic model to estimate the EC50 from the point of inflection of the curve and the maximal shift in the Vhalf from the top of the curve.
(§4) The lower the EC50 value, the higher the potency of the analyzed compound. The selectivity criteria is assigned on the basis of the maximal shift in the Vhalf at 30 μM. […] In Table 3, ND means that selectivity was not determined.

[3] = target: T3, homomeric KV7.4 channel (KCNQ4) (Homo sapiens, UniProt P56696); assay: Automated patch-clamp (Qube) counter-screening assay against KV7.4 channel; conditions: CHO-K1 cells expressing KV7.4; class by maximal shift in the Vhalf at 30 μM
T3 construct: host or cells: CHO-K1
Source text: Assessment of In Vitro Potency Against KV7.4 Channels
A counter-screening assay was also developed on the Qube against the homomeric KV7.4 channel (KCNQ4, Uniprot ID P56696). The cell line used was a stably transfected CHO-K1 with constitutive KV7.4 expression supplied by Charles River Laboratories.
CHO-K1 cells stably expressing KV7.4 channels were maintained in the following culture media: • Hams F-12 with GlutaMAX™ (Life Technologies 31765027), • 10% Fetal clone 2 serum (Perbio Science SH30066.03), and • 250 μg/ml Geneticin™ selective antibiotic (G418, Invitrogen 1013-027).
as §1, §2, §3, §4

Structure (SMILES)	EC50 [1] [nM]	Kv7.2/7.3 ΔV1/2 [1] [mV]	Kv7.3/7.5 selectivity criteria [2]	Kv7.4 selectivity criteria [3]
O=C(NCCC1(C(F)(F)F)CC1)NCc1cc(OCC(F)(F)F)nc(C(F)(F)F)c1 [Compound 82, 1-((2-(2,2,2-Trifluoroethoxy)-6-(trifluoromethyl)pyridin-4-yl)methyl)-3-(2-(1-(trifluoromethyl)cyclopropyl)ethyl)urea]	2150	18.38	A (Selective compounds showed Kv7.4 and/or Kv7.3/7.5 ΔV1/2 equal to or lower than 15 mV (letter A in table 3))	B (Non-selective compounds showed Kv7.4 and/or Kv7.3/7.5 ΔV1/2 higher than 15 mV (letter B in table 3))
O=C(NCCC1(C(F)(F)F)CC1)NCc1ccnc(OCC2(F)COC2)c1 [Compound 24, 1-((2-((3-Fluorooxetan-3-yl)methoxy)pyridin-4-yl)methyl)-3-(2-(1-(trifluoromethyl)cyclopropyl)ethyl)urea]	11000	17.14	A (Selective compounds showed Kv7.4 and/or Kv7.3/7.5 ΔV1/2 equal to or lower than 15 mV (letter A in table 3))	A (Selective compounds showed Kv7.4 and/or Kv7.3/7.5 ΔV1/2 equal to or lower than 15 mV (letter A in table 3))
C[C@H](NC(=O)NCCC1(C(F)(F)F)CC1)c1ccnc(OCC(F)(F)F)c1 [Compound 67, (S)-1-(1-(2-(2,2,2-Trifluoroethoxy)pyridin-4-yl)ethyl)-3-(2-(1-(trifluoromethyl)cyclopropyl)ethyl)urea]	5000	23.87	A (Selective compounds showed Kv7.4 and/or Kv7.3/7.5 ΔV1/2 equal to or lower than 15 mV (letter A in table 3))	A (Selective compounds showed Kv7.4 and/or Kv7.3/7.5 ΔV1/2 equal to or lower than 15 mV (letter A in table 3))
Cc1cc(CNC(=O)NCCC2(C(F)(F)F)CC2)cc(OCC(F)(F)F)n1 [Compound 39, 1-((2-Methyl-6-(2,2,2-trifluoroethoxy)pyridin-4-yl)methyl)-3-(2-(1-(trifluoromethyl)cyclopropyl)ethyl)urea]	1470	21.29	A (Selective compounds showed Kv7.4 and/or Kv7.3/7.5 ΔV1/2 equal to or lower than 15 mV (letter A in table 3))	A (Selective compounds showed Kv7.4 and/or Kv7.3/7.5 ΔV1/2 equal to or lower than 15 mV (letter A in table 3))
O=C(NCCC1(C(F)(F)F)CC1)N1CCC[C@H]1c1ccnc(OCC(F)(F)F)c1 [Compound 106]	2840	28.47	A (Selective compounds showed Kv7.4 and/or Kv7.3/7.5 ΔV1/2 equal to or lower than 15 mV (letter A in table 3))	A (Selective compounds showed Kv7.4 and/or Kv7.3/7.5 ΔV1/2 equal to or lower than 15 mV (letter A in table 3))
O=C(NCCC1(C(F)(F)F)CC1)N[C@@H](CO)c1ccnc(OCC(F)(F)F)c1 [Compound 112]	653	26.53	A (Selective compounds showed Kv7.4 and/or Kv7.3/7.5 ΔV1/2 equal to or lower than 15 mV (letter A in table 3))	A (Selective compounds showed Kv7.4 and/or Kv7.3/7.5 ΔV1/2 equal to or lower than 15 mV (letter A in table 3))
O=C(NCCC1(C(F)(F)F)CC1)NCc1cc(OCC(F)(F)F)nc(N2CCOCC2)c1 [Compound 26, 1-((2-Morpholino-6-(2,2,2-trifluoroethoxy)pyridin-4-yl)methyl)-3-(2-(1-(trifluoromethyl)cyclopropyl)ethyl)urea]	5140	31.67	A (Selective compounds showed Kv7.4 and/or Kv7.3/7.5 ΔV1/2 equal to or lower than 15 mV (letter A in table 3))	B (Non-selective compounds showed Kv7.4 and/or Kv7.3/7.5 ΔV1/2 higher than 15 mV (letter B in table 3))

More lines, main results first:

EC50 [1] [nM]	Kv7.2/7.3 ΔV1/2 [1] [mV]	Structure (SMILES)	Kv7.3/7.5 selectivity criteria [2]	Kv7.4 selectivity criteria [3]
11200	23.51	O=C(NCc1ccnc(OCC(F)(F)F)c1)N[C@H]1c2ccccc2C[C@H]1CO [Compound 151]	A (Selective compounds showed Kv7.4 and/or Kv7.3/7.5 ΔV1/2 equal to or lower than 15 mV (letter A in table 3))	A (Selective compounds showed Kv7.4 and/or Kv7.3/7.5 ΔV1/2 equal to or lower than 15 mV (letter A in table 3))
1350	38.89	O=C(NCc1ccnc(OCC(F)(F)F)c1)N[C@@H]1CCc2ccc(F)cc21 [Compound 86, (R)-1-(6-fluoro-2,3-dihydro-1H-inden-1-yl)-3-((2-(2,2,2-trifluoroethoxy)pyridin-4-yl)methyl)urea]	A (Selective compounds showed Kv7.4 and/or Kv7.3/7.5 ΔV1/2 equal to or lower than 15 mV (letter A in table 3))	A (Selective compounds showed Kv7.4 and/or Kv7.3/7.5 ΔV1/2 equal to or lower than 15 mV (letter A in table 3))
2470	26.35	CC(C)(C)[C@@H](O)CNC(=O)NCc1ccnc(OCC(F)(F)C(F)(F)F)c1 [Compound 73, (R)-1-(2-Hydroxy-3,3-dimethylbutyl)-3-((2-(2,2,3,3,3-pentafluoropropoxy)pyridin-4-yl)methyl)urea]	A (Selective compounds showed Kv7.4 and/or Kv7.3/7.5 ΔV1/2 equal to or lower than 15 mV (letter A in table 3))	A (Selective compounds showed Kv7.4 and/or Kv7.3/7.5 ΔV1/2 equal to or lower than 15 mV (letter A in table 3))
926	18.2	O=C(NCc1ccnc(OCC(F)(F)F)c1)N[C@@H]1CCc2ccc(C(F)(F)F)cc21 [Compound 162]	A (Selective compounds showed Kv7.4 and/or Kv7.3/7.5 ΔV1/2 equal to or lower than 15 mV (letter A in table 3))	B (Non-selective compounds showed Kv7.4 and/or Kv7.3/7.5 ΔV1/2 higher than 15 mV (letter B in table 3))
862	26.55	O=C(NCc1ccnc(OCC(F)(F)F)c1)NCC1CCCC(F)(F)C1 (stereo not shown) [Compound 79, 1-((3,3-Difluorocyclohexyl)methyl)-3-((2-(2,2,2-trifluoroethoxy)pyridin-4-yl)methyl) urea]	A (Selective compounds showed Kv7.4 and/or Kv7.3/7.5 ΔV1/2 equal to or lower than 15 mV (letter A in table 3))	A (Selective compounds showed Kv7.4 and/or Kv7.3/7.5 ΔV1/2 equal to or lower than 15 mV (letter A in table 3))
479	21.89	O=C(NCc1ccnc(OCC(F)(F)F)c1)N[C@@H]1CCc2ccccc2C1 [Compound 115]	A (Selective compounds showed Kv7.4 and/or Kv7.3/7.5 ΔV1/2 equal to or lower than 15 mV (letter A in table 3))	A (Selective compounds showed Kv7.4 and/or Kv7.3/7.5 ΔV1/2 equal to or lower than 15 mV (letter A in table 3))
6670	25.23	O=C(NCc1ccnc(OCC(F)(F)F)c1)N[C@H]1c2ccccc2C[C@@H]1O [Compound 123]	A (Selective compounds showed Kv7.4 and/or Kv7.3/7.5 ΔV1/2 equal to or lower than 15 mV (letter A in table 3))	A (Selective compounds showed Kv7.4 and/or Kv7.3/7.5 ΔV1/2 equal to or lower than 15 mV (letter A in table 3))
3080	42.02	Cc1ccc2c(c1)[C@H](NC(=O)NCc1ccnc(OCC(F)(F)F)c1)CC2 [Compound 126]	B (Non-selective compounds showed Kv7.4 and/or Kv7.3/7.5 ΔV1/2 higher than 15 mV (letter B in table 3))	B (Non-selective compounds showed Kv7.4 and/or Kv7.3/7.5 ΔV1/2 higher than 15 mV (letter B in table 3))
472	25.42	O=C(NCCC1(C(F)(F)F)CC1)NCc1ccnc(OCc2ccccc2)c1 [Compound 3, 1-((2-(Benzyloxy)pyridin-4-yl)methyl)-3-(2-(1-(trifluoromethyl)cyclopropyl)ethyl)urea]	A (Selective compounds showed Kv7.4 and/or Kv7.3/7.5 ΔV1/2 equal to or lower than 15 mV (letter A in table 3))	A (Selective compounds showed Kv7.4 and/or Kv7.3/7.5 ΔV1/2 equal to or lower than 15 mV (letter A in table 3))
